# Reference: US8343961B2, “Substituted heterocyclic compounds” (ArQule, Inc., priority 2009, dated 2013)
# Target: T1, Tec kinase (Homo sapiens, UniProt P42680)
# T1 sequence (P42680 1-631): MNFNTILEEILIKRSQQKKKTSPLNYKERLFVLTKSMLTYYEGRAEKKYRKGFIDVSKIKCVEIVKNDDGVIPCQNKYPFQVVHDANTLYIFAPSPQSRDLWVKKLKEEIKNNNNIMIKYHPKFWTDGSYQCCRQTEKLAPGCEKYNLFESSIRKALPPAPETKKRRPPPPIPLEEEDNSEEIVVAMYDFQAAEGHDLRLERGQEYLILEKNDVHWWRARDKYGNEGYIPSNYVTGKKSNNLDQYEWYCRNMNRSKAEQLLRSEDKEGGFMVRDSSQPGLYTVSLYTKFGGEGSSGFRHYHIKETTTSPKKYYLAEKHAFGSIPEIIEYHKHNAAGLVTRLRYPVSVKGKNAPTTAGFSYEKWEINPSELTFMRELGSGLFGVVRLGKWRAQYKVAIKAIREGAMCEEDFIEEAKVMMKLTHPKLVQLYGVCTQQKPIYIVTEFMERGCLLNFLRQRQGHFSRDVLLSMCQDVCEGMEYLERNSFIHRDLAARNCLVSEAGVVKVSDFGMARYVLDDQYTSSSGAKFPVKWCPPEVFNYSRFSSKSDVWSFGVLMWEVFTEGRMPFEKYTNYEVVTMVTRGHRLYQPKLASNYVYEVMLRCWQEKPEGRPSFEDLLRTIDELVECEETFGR
# Assay: Tec Kinase Activity Assay
# Assay type: biochemical
# Conditions: read-out: Tec % INH, at 30 uM
# Protocol: The disclosed compounds were assayed for their ability to inhibit the activity of Tec kinase. Nunc Maxisorb plates were coated with streptavidin by overnight incubation with 100 μL per well of 1 μg/mL Streptavidin in DPBS. Prior to the start of the experiment, the plates were washed with TBST (3×200 μL) and blocked for at least 1 hour by adding 150 μL of 5% BSA/TBST. The plates were washed with TBST (3×200 μL/well) and left dry immediately before the capture step.
# The test articles and controls (Staurosporine and Sutent) were prepared using the following assay buffer @ 3× desired final concentration (50 mM Tris-HCl, 0.02 mg/mL BSA, 10 mM MgCl2, 0.1 mM Na3VO4, 1 mM EGTA, 75 μM ATP0.01% NP-40, 2 mM DTT in 10% glycerol/water). In a reaction plate were added rapidly 20 μL test article (or control) and 20 μL TEC 0.25 ng/4. The plate was incubated for 30 minutes. To the reaction plate was added 20 μL of Pyk-2.5 ng/μL. The plate was incubated at room temperature for two hours. From the reaction plate, 50 μL was transferred to the streptavidin coated plate. The capture plate was incubated at room temperature for 30 minutes then washed 6× with TBST. To the capture plate was added 100 μL/well of Cell Signaling anti-phospho tyrosine at a dilution of 1:3000 in 2% BSA/TBST. The plate was incubated for one hour at room temperature then washed 6× with TBST. To the capture plate was added 100 μL/well of Alkaline Phosphatase Tagged Goat anti Mouse Antibody at a dilution of 1:4000 in 2% BSA/TBST. The plate was incubated for one hour at room temperature then washed 6× with TBST. The fluorescent readout was initiated by the addition of 100 μL/well of Attophos reagent (6 mg/10 mL). The reading was done on the Perkin Elmer Envision system.
row,SMILES,inhibition at 30 µM [%]
1,"COc1cccc(CN2CCN(c3nc(N)nc4[nH]ncc34)Cc3ccccc32)c1 [Compound 1, 4-[1-(3-methoxybenzyl)-1,2,3,5-tetrahydro-4H-1,4-benzodiazepin-4-yl]-1H-pyrazolo[3,4-d]pyrimidin-6-amine]",> 79
2,"CC(C)c1ccc(CN2CCN(c3nc(N)nc4[nH]ncc34)Cc3ccccc32)cc1 [Compound 4, 4-[1-(4-isopropylbenzyl)-1,2,3,5-tetrahydro-4H-1,4-benzodiazepin-4-yl]-1H-pyrazolo[3,4-d]pyrimidin-6-amine]",50 to 79
3,"Nc1nc(N2CCN(Cc3cccc(F)c3)c3ccccc3C2)c2cn[nH]c2n1 [Compound 6, 4-[1-(3-fluorobenzyl)-1,2,3,5-tetrahydro-4H-1,4-benzodiazepin-4-yl]-1H-pyrazolo[3,4-d]pyrimidin-6-amine]",50 to 79
4,"Nc1nc(N2CCN(CCCc3cccc(Cl)c3)c3ccccc3C2)c2cn[nH]c2n1 [Compound 8, 4-{1-[3-(3-chlorophenyl)propyl]-1,2,3,5-tetrahydro-4H-1,4-benzodiazepin-4-yl}-1H-pyrazolo[3,4-d]pyrimidin-6-amine]",> 79
5,"COc1ccccc1CN1CCN(c2nc(N)nc3[nH]ncc23)Cc2ccccc21 [Compound 10, 4-[1-(2-methoxybenzyl)-1,2,3,5-tetrahydro-4H-1,4-benzodiazepin-4-yl]-1H-pyrazolo[3,4-d]pyrimidin-6-amine]",> 79
6,"Cc1ccccc1CN1CCN(c2nc(N)nc3[nH]ncc23)Cc2ccccc21 [Compound 12, 4-[1-(2-methylbenzyl)-1,2,3,5-tetrahydro-4H-1,4-benzodiazepin-4-yl]-1H-pyrazolo[3,4-d]pyrimidin-6-amine]",50 to 79
7,"Nc1nc(N2CCN(Cc3ccccc3Cl)c3ccccc3C2)c2cn[nH]c2n1 [Compound 14, 4-[1-(2-chlorobenzyl)-1,2,3,5-tetrahydro-4H-1,4-benzodiazepin-4-yl]-1H-pyrazolo[3,4-d]pyrimidin-6-amine]",50 to 79
8,"Nc1nc(N2CCN(Cc3ccc(F)cc3)c3ccccc3C2)c2cn[nH]c2n1 [Compound 16, 4-[1-(4-fluorobenzyl)-1,2,3,5-tetrahydro-4H-1,4-benzodiazepin-4-yl]-1H-pyrazolo[3,4-d]pyrimidin-6-amine]",50 to 79
9,"Nc1nc(N2CCN(Cc3cccc(C(F)(F)F)c3)c3ccccc3C2)c2cn[nH]c2n1 [Compound 21, 4-{1-[3-(trifluoromethyl)benzyl]-1,2,3,5-tetrahydro-4H-1,4-benzodiazepin-4-yl}-1H-pyrazolo[3,4-d]pyrimidin-6-amine]",50 to 79
10,"Nc1nc(N2CCN(Cc3ccc(Cl)cc3)c3ccccc3C2)c2cn[nH]c2n1 [Compound 23, 4-[1-(4-chlorobenzyl)-1,2,3,5-tetrahydro-4H-1,4-benzodiazepin-4-yl]-1H-pyrazolo[3,4-d]pyrimidin-6-amine]",< 50
11,"COc1ccc(CN2CCN(c3nc(N)nc4[nH]ncc34)Cc3ccccc32)cc1OC [Compound 28, 4-[1-(3,4-dimethoxybenzyl)-1,2,3,5-tetrahydro-4H-1,4-benzodiazepin-4-yl]-1H-pyrazolo[3,4-d]pyrimidin-6-amine]",50 to 79
12,"CC(C)(C)c1ccc(CN2CCN(c3nc(N)nc4[nH]ncc34)Cc3ccccc32)cc1 [Compound 30, 4-[1-(4-tert-butylbenzyl)-1,2,3,5-tetrahydro-4H-1,4-benzodiazepin-4-yl]-1H-pyrazolo[3,4-d]pyrimidin-6-amine]",50 to 79
13,"Nc1nc(N2CCN(Cc3ccc(Cl)cc3Cl)c3ccccc3C2)c2cn[nH]c2n1 [Compound 32, 4-[1-(2,4-dichlorobenzyl)-1,2,3,5-tetrahydro-4H-1,4-benzodiazepin-4-yl]-1H-pyrazolo[3,4-d]pyrimidin-6-amine]",50 to 79

# Results, then the compound that gave them:
row,inhibition at 30 µM [%],SMILES
1,50 to 79,"COc1cccc(CN2CCN(c3nc(N)nc4[nH]cnc34)Cc3ccccc32)c1 [Compound 2, 6-[1-(3-methoxybenzyl)-1,2,3,5-tetrahydro-4H-1,4-benzodiazepin-4-yl]-9H-purin-2-amine]"
2,< 50,"CC(C)c1ccc(CN2CCN(c3nc(N)nc4[nH]cnc34)Cc3ccccc32)cc1 [Compound 3, 6-[1-(4-isopropylbenzyl)-1,2,3,5-tetrahydro-4H-1,4-benzodiazepin-4-yl]-9H-purin-2-amine]"
3,50 to 79,"Nc1nc(N2CCN(CCCc3cccc(Cl)c3)c3ccccc3C2)c2nc[nH]c2n1 [Compound 7, 6-{1-[3-(3-chlorophenyl)propyl]-1,2,3,5-tetrahydro-4H-1,4-benzodiazepin-4-yl}-9H-purin-2-amine]"
4,50 to 79,"COc1ccccc1CN1CCN(c2nc(N)nc3[nH]cnc23)Cc2ccccc21 [Compound 9, 6-[1-(2-methoxybenzyl)-1,2,3,5-tetrahydro-4H-1,4-benzodiazepin-4-yl]-9H-purin-2-amine]"
5,50 to 79,"Cc1ccccc1CN1CCN(c2nc(N)nc3[nH]cnc23)Cc2ccccc21 [Compound 11, 6-[1-(2-methylbenzyl)-1,2,3,5-tetrahydro-4H-1,4-benzodiazepin-4-yl]-9H-purin-2-amine]"
6,< 50,"Nc1nc(N2CCN(Cc3ccccc3Cl)c3ccccc3C2)c2nc[nH]c2n1 [Compound 13, 6-[1-(2-chlorobenzyl)-1,2,3,5-tetrahydro-4H-1,4-benzodiazepin-4-yl]-9H-purin-2-amine]"
7,50 to 79,"Nc1nc(N2CCN(Cc3ccc(F)cc3)c3ccccc3C2)c2nc[nH]c2n1 [Compound 15, 6-[1-(4-fluorobenzyl)-1,2,3,5-tetrahydro-4H-1,4-benzodiazepin-4-yl]-9H-purin-2-amine]"
8,50 to 79,"Nc1nc(N2CCN(Cc3cccc4ccccc34)c3ccccc3C2)c2nc[nH]c2n1 [Compound 17, 6-[1-(1-naphthylmethyl)-1,2,3,5-tetrahydro-4H-1,4-benzodiazepin-4-yl]-9H-purin-2-amine]"
9,50 to 79,"Nc1nc(N2CCN(Cc3cccc(C(F)(F)F)c3)c3ccccc3C2)c2nc[nH]c2n1 [Compound 20, 6-{1-[3-(trifluoromethyl)benzyl]-1,2,3,5-tetrahydro-4H-1,4-benzodiazepin-4-yl}-9H-purin-2-amine]"
10,50 to 79,"Nc1nc(N2CCN(Cc3cccc(Cl)c3)c3ccccc3C2)c2nc[nH]c2n1 [Compound 24, 6-[1-(3-chlorobenzyl)-1,2,3,5-tetrahydro-4H-1,4-benzodiazepin-4-yl]-9H-purin-2-amine]"
11,50 to 79,"Nc1nc(N2CCN(Cc3cccc(Cl)c3)c3ccccc3C2)c2cn[nH]c2n1 [Compound 25, 4-[1-(3-chlorobenzyl)-1,2,3,5-tetrahydro-4H-1,4-benzodiazepin-4-yl]-1H-pyrazolo[3,4-d]pyrimidin-6-amine]"
12,< 50,"Cc1ccc(CN2CCN(c3nc(N)nc4[nH]cnc34)Cc3ccccc32)cc1 [Compound 26, 6-[1-(4-methylbenzyl)-1,2,3,5-tetrahydro-4H-1,4-benzodiazepin-4-yl]-9H-purin-2-amine]"
13,50 to 79,"COc1ccc(CN2CCN(c3nc(N)nc4[nH]cnc34)Cc3ccccc32)cc1OC [Compound 27, 6-[1-(3,4-dimethoxybenzyl)-1,2,3,5-tetrahydro-4H-1,4-benzodiazepin-4-yl]-9H-purin-2-amine]"
14,< 50,"CC(C)(C)c1ccc(CN2CCN(c3nc(N)nc4[nH]cnc34)Cc3ccccc32)cc1 [Compound 29, 6-[1-(4-tert-butylbenzyl)-1,2,3,5-tetrahydro-4H-1,4-benzodiazepin-4-yl]-9H-purin-2-amine]"
15,< 50,"Nc1nc(N2CCN(Cc3ccc(Cl)cc3Cl)c3ccccc3C2)c2nc[nH]c2n1 [Compound 31, 6-[1-(2,4-dichlorobenzyl)-1,2,3,5-tetrahydro-4H-1,4-benzodiazepin-4-yl]-9H-purin-2-amine]"
16,< 50,"Cc1cccc(CN2CCN(c3nc(N)nc4[nH]cnc34)Cc3ccccc32)c1 [Compound 33, 6-[1-(3-methylbenzyl)-1,2,3,5-tetrahydro-4H-1,4-benzodiazepin-4-yl]-9H-purin-2-amine]"
